From ChEMBL document CHEMBL4699554, “Biological Evaluation of Selected Flavonoids as Inhibitors of MNKs Targeting Acute Myeloid Leukemia” (J Nat Prod, 2020)
The source made the active and inactive calls. No cut-off for these calls is given here.

Tests used:
[1] = target: T1, MAP kinase-interacting serine/threonine-protein kinase 2 (Homo sapiens, UniProt Q9HBH9); experiment: Inhibition of N-terminal GST-tagged recombinant human full length MNK2 expressed in baculovirus expression system at 10 uM incubated for 1 hr by Kinase Tracer 236 based LanthaScreen Eu kinase binding assay relative to control
Target sequence in this assay (Q9HBH9 whole entry, looked up): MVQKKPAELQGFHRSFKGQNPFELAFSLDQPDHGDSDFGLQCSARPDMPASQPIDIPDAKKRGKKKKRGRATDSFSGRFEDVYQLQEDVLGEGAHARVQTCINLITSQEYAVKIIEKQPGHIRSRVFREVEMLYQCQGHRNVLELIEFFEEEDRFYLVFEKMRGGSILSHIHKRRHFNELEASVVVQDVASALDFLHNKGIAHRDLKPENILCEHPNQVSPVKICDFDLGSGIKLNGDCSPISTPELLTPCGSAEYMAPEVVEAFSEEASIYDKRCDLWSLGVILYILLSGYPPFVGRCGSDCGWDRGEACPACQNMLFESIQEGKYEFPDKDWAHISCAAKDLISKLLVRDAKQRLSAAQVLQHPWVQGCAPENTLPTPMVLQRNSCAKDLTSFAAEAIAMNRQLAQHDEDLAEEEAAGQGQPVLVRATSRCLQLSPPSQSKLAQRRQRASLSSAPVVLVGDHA

[2] = target: T1, MAP kinase-interacting serine/threonine-protein kinase 2; experiment: Inhibition of N-terminal GST-tagged recombinant human full length MNK2 expressed in baculovirus expression system incubated for 1 hr by Kinase Tracer 236 based LanthaScreen Eu kinase binding assay relative to control
Target sequence in this assay (Q9HBH9 whole entry): as the sequence (Q9HBH9 whole entry, looked up) above

[3] = target: T2, MAP kinase-interacting serine/threonine-protein kinase 1 (Homo sapiens, UniProt Q9BUB5); experiment: Inhibition of GST-tagged recombinant human full length MNK1 expressed in insect cells at 10 uM relative to control
Target sequence in this assay (Q9BUB5 whole entry, looked up): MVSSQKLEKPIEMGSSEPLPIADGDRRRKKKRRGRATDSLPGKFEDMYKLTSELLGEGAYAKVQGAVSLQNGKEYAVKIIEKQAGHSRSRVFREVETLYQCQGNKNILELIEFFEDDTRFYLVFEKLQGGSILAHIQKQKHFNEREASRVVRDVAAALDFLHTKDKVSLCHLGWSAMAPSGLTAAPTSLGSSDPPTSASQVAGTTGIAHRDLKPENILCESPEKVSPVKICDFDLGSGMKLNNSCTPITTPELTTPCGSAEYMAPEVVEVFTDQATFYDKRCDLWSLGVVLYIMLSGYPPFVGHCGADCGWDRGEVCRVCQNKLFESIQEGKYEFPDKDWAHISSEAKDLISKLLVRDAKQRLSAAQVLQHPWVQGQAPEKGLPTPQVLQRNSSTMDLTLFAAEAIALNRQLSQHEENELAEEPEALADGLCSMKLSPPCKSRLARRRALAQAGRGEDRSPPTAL

[4] = target: T2, MAP kinase-interacting serine/threonine-protein kinase 1; experiment: Inhibition of GST-tagged recombinant human full length MNK1 expressed in insect cells
Target sequence in this assay (Q9BUB5 whole entry): as the sequence (Q9BUB5 whole entry, looked up) above

[5] = target: T3, MAP kinase-interacting serine/threonine-protein kinase 1/2 (Homo sapiens) (UniProt Q9HBH9+Q9BUB5); experiment: Inhibition of MNK1/MNK2 in human MV4-11 cells assessed as reduction in eIF4E phosphorylation reduction in eIF4E phosphorylation after 24 to 48 hrs by Western blot analysis; assay type: cell-based; conditions: dose microM 1-30, time hrs 24-48
[6] = target: T3, MAP kinase-interacting serine/threonine-protein kinase 1/2 (Homo sapiens); experiment: Inhibition of MNK1/MNK2 in human MOLM-13 cells assessed as reduction in eIF4E phosphorylation reduction in eIF4E phosphorylation after 24 to 48 hrs by Western blot analysis; assay type: cell-based; conditions: dose microM 1-30, time hrs 24-48
[7] = target: T3, MAP kinase-interacting serine/threonine-protein kinase 1/2 (Homo sapiens); experiment: Inhibition of MNK1/MNK2 in human MV4-11 cells assessed as reduction in eIF4E phosphorylation reduction in eIF4E phosphorylation at 30 uM after 24 to 48 hrs by Western blot analysis; assay type: cell-based; conditions: time hrs 24-48
[8] = target: T3, MAP kinase-interacting serine/threonine-protein kinase 1/2 (Homo sapiens); experiment: Inhibition of MNK1/MNK2 in human MOLM-13 cells assessed as reduction in eIF4E phosphorylation reduction in eIF4E phosphorylation at 30 uM after 24 to 48 hrs by Western blot analysis; assay type: cell-based; conditions: time hrs 24-48
MV4-11 [9] = experiment: Induction of cell cycle arrest in human MV4-11 cells assessed as increase in accumulation at sub-G1 phase at 3 to 30 uM after 72 hrs by propidium iodide staining based flow cytometric analysis; assay type: functional; conditions: dose microM 3-30, time 72.0 hrs
MOLM-13 [10] = experiment: Induction of cell cycle arrest in human MOLM-13 cells assessed as increase in accumulation at sub-G1 phase at 3 to 30 uM after 72 hrs by propidium iodide staining based flow cytometric analysis; assay type: functional; conditions: dose microM 3-30, time 72.0 hrs
MV4-11 [11] = experiment: Induction of cell death in human MV4-11 cells assessed as increase in accumulation at sub-G1 phase after 72 hrs by propidium iodide staining based flow cytometric analysis; assay type: functional; conditions: dose microM 1-30, time 72.0 hrs
MOLM-13 [12] = experiment: Induction of cell death in human MOLM-13 cells assessed as increase in accumulation at sub-G1 phase after 72 hrs by propidium iodide staining based flow cytometric analysis; assay type: functional; conditions: dose microM 1-30, time 72.0 hrs
MOLM-13 [13] = experiment: Cytotoxicity against human MOLM-13 cells assessed as reduction in cell viability after 72 hrs by MTT assay; assay type: functional, cell-based; conditions: MOLM-13, 72 h
MV4-11 [14] = experiment: Cytotoxicity against human MV4-11 cells assessed as reduction in cell viability after 72 hrs by MTT assay; assay type: functional, cell-based; conditions: MV4-11, 72 h
MOLM-13 [15] = experiment: Induction of apoptosis in human MOLM-13 cells assessed as increase in cleaved PARP level after 72 hrs by Western blot analysis; assay type: functional, cell-based; conditions: dose microM 1-30, time 72.0 hrs
MV4-11 [16] = experiment: Induction of apoptosis in human MV4-11 cells assessed as increase in cleaved PARP level after 72 hrs by Western blot analysis; assay type: functional, cell-based; conditions: dose microM 1-30, time 72.0 hrs
MOLM-13 [17] = experiment: Induction of apoptosis in human MOLM-13 cells assessed as increase in cleaved caspace-3 level after 72 hrs by Western blot analysis; assay type: functional, cell-based; conditions: dose microM 1-30, time 72.0 hrs
MV4-11 [18] = experiment: Induction of apoptosis in human MV4-11 cells assessed as increase in cleaved caspace-3 level after 72 hrs by Western blot analysis; assay type: functional, cell-based; conditions: dose microM 1-30, time 72.0 hrs
[19] = target: T3, MAP kinase-interacting serine/threonine-protein kinase 1/2 (Homo sapiens); experiment: Inhibition of MNK1/MNK2 in human MV4-11 cells assessed as reduction in eIF4E phosphorylation reduction in eIF4E phosphorylation at 10 uM after 24 to 48 hrs by Western blot analysis; assay type: cell-based; conditions: time hrs 24-48
[20] = target: T3, MAP kinase-interacting serine/threonine-protein kinase 1/2 (Homo sapiens); experiment: Inhibition of MNK1/MNK2 in human MOLM-13 cells assessed as reduction in eIF4E phosphorylation reduction in eIF4E phosphorylation at 10 uM after 24 to 48 hrs by Western blot analysis; assay type: cell-based; conditions: time hrs 24-48
MV4-11 [21] = experiment: Induction of cell cycle arrest in human MV4-11 cells assessed as increase in accumulation at sub-G1 phase at 1 to 30 uM after 72 hrs by propidium iodide staining based flow cytometric analysis; assay type: functional; conditions: dose microM 1-30, time 72.0 hrs
MV4-11 [22] = experiment: Induction of cell cycle arrest in human MV4-11 cells assessed as increase in accumulation at sub-G1 phase at 30 uM after 72 hrs by propidium iodide staining based flow cytometric analysis relative to control; assay type: functional
MOLM-13 [23] = experiment: Induction of cell cycle arrest in human MOLM-13 cells assessed as increase in accumulation at sub-G1 phase at 1 to 30 uM after 72 hrs by propidium iodide staining based flow cytometric analysis; assay type: functional; conditions: dose microM 1-30, time 72.0 hrs
MOLM-13 [24] = experiment: Induction of cell cycle arrest in human MOLM-13 cells assessed as increase in accumulation at sub-G1 phase at 30 uM after 72 hrs by propidium iodide staining based flow cytometric analysis relative to control; assay type: functional

Question: How did the inhibition [1] turn out when `COc1ccc(-c2cc(=O)c3ccc(O)cc3o2)cc1OC` was run?
Answer: The inhibition was over 50%.

Question: `COc1cc2c(c(OC)c1CC=C(C)C)C(=O)CC(c1ccc(OC)c(OC)c1C/C=C(\C)CCC=C(C)C)O2` (centres undefined) was tested. Which inhibition [1] did it give?
Answer: The inhibition was over 70%.

Question: What about the IC50 [2] of the same molecule?
Answer: Its IC50 is 8.26 µM.

Question: `O=c1cc(-c2ccccc2)oc2cc(O)ccc12` was tested. Which inhibition [1] did it give?
Answer: Its inhibition is over 50%.

Question: `COc1cc(O)c(C(=O)/C=C/c2ccccc2)c(OC)c1` was tested. Which inhibition [1] did it give?
Answer: Its inhibition is over 50%.

Question: For `COc1c(O)cc2oc(-c3ccc(O)cc3)cc(=O)c2c1O` [HISPIDULIN], which inhibition [1] is on record?
Answer: Its inhibition is 93%.

Question: And the IC50 [2]?
Answer: The IC50 was 0.252 µM.

Question: And the inhibition [3]?
Answer: The inhibition was over 70%.

Question: What about the IC50 [4] of the same molecule?
Answer: The IC50 was 1.2 µM.

Question: What about the inhibition [5] of the same molecule?
Answer: The inhibition was “Dose-dependent effect”.

Question: And the inhibition [6]?
Answer: The inhibition was “Dose-dependent effect”.

Question: And the inhibition [7]?
Answer: The inhibition was 100%.

Question: And the inhibition [8]?
Answer: Its inhibition is 100%.

Question: What about the Activity (MV4-11 [9]) of the same molecule?
Answer: Its Activity is “Active”.

Question: And the Activity (MOLM-13 [10])?
Answer: The Activity was “Active”.

Question: What about the Activity (MV4-11 [11]) of the same molecule?
Answer: The Activity was “Active”.

Question: And the Activity (MOLM-13 [12])?
Answer: The Activity was “Active”.

Question: What about the IC50 (MOLM-13 [13]) of the same molecule?
Answer: Its IC50 is 6.4 µM.

Question: What about the IC50 (MV4-11 [14]) of the same molecule?
Answer: Its IC50 is 8.2 µM.

Question: And the Activity (MOLM-13 [15])?
Answer: Its Activity is “Dose-dependent effect”.

Question: And the Activity (MV4-11 [16])?
Answer: The Activity was “Dose-dependent effect”.

Question: And the Activity (MOLM-13 [17])?
Answer: The Activity was “Dose-dependent effect”.

Question: What about the Activity (MV4-11 [18]) of the same molecule?
Answer: Its Activity is “Dose-dependent effect”.

Question: `O=C(/C=C/c1cccc(O)c1)c1ccccc1O` was tested. Which inhibition [1] did it give?
Answer: Its inhibition is over 50%.

Question: What does the source list for `O=c1c(O)c(-c2ccncc2)oc2ccc(Cl)cc12`?
Answer: inhibition [1]: > 70%; IC50 [2]: 6.49 µM

Question: `COc1ccc(-c2oc3cc(OC)c(OC)c(O)c3c(=O)c2O)cc1O` was tested. Which inhibition [1] did it give?
Answer: The inhibition was over 70%.

Question: What about the IC50 [2] of the same molecule?
Answer: The IC50 was 1.7 µM.

Question: For `COc1ccc(C(=O)/C=C/c2ccc(O)c(Br)c2)cc1`, which inhibition [1] is on record?
Answer: The inhibition was over 70%.

Question: What about the IC50 [2] of the same molecule?
Answer: The IC50 was 4.67 µM.

Question: For `O=c1cc(-c2ccc(O)c(O)c2)oc2cc(O)cc(O)c12` [LUTEOLIN], which inhibition [1] is on record?
Answer: The inhibition was over 70%.

Question: What about the IC50 [2] of the same molecule?
Answer: The IC50 was 0.579 µM.

Question: And the inhibition [3]?
Answer: The inhibition was over 70%.

Question: What about the IC50 [4] of the same molecule?
Answer: Its IC50 is 0.179 µM.

Question: And the inhibition [5]?
Answer: The inhibition was “Dose-dependent effect”.

Question: What about the inhibition [6] of the same molecule?
Answer: The inhibition was “Dose-dependent effect”.

Question: And the inhibition [19]?
Answer: The inhibition was 100%.

Question: What about the inhibition [20] of the same molecule?
Answer: The inhibition was 100%.

Question: And the Activity (MV4-11 [21])?
Answer: The Activity was “Active”.

Question: What about the Activity (MV4-11 [22]) of the same molecule?
Answer: Its Activity is over 80%.

Question: What about the Activity (MOLM-13 [23]) of the same molecule?
Answer: The Activity was “Active”.

Question: And the Activity (MOLM-13 [24])?
Answer: The Activity was over 80%.

Question: And the Activity (MV4-11 [11])?
Answer: The Activity was “Active”.

Question: What about the Activity (MOLM-13 [12]) of the same molecule?
Answer: The Activity was “Active”.

Question: What about the IC50 (MOLM-13 [13]) of the same molecule?
Answer: Its IC50 is 4.5 µM.

Question: What about the IC50 (MV4-11 [14]) of the same molecule?
Answer: The IC50 was 3.1 µM.

Question: And the Activity (MOLM-13 [15])?
Answer: Its Activity is “Dose-dependent effect”.

Question: What about the Activity (MV4-11 [16]) of the same molecule?
Answer: Its Activity is “Dose-dependent effect”.

Question: What about the Activity (MOLM-13 [17]) of the same molecule?
Answer: The Activity was “Dose-dependent effect”.

Question: What about the Activity (MV4-11 [18]) of the same molecule?
Answer: The Activity was “Dose-dependent effect”.

Question: What does the source list for `O=c1cc(-c2ccc(O)cc2)oc2cc(O)cc(O)c12` [APIGENIN]?
Answer: inhibition [1]: > 70%; IC50 [2]: 0.308 µM

Question: How did the inhibition [1] turn out when `COc1cc(O)c(C(=O)/C=C/c2ccc(C(=O)O)cc2)c(OC)c1` was run?
Answer: Its inhibition is over 70%.

Question: What about the IC50 [2] of the same molecule?
Answer: Its IC50 is 3.7 µM.

Question: For `COc1cc(O)c2c(=O)cc(-c3ccc(O)cc3)oc2c1` [GENKWANIN], which inhibition [1] is on record?
Answer: The inhibition was over 70%.

Question: What about the IC50 [2] of the same molecule?
Answer: The IC50 was 0.979 µM.

Question: What about the IC50 (MOLM-13 [13]) of the same molecule?
Answer: The IC50 was over 10 µM.

Question: And the IC50 (MV4-11 [14])?
Answer: Its IC50 is over 10 µM.

Question: How did the inhibition [1] turn out when `COc1ccc(-c2cc(=O)c3c(O)cc(O)cc3o2)cc1` was run?
Answer: Its inhibition is over 50%.
